The assay has as its system middle cerebral artery ischemia-reperfusion model. Description: Cerebroprotective action in middle cerebral artery ischemia-reperfusion model. It is filed as in vivo, rat. The settings on record: for cerebral infarction nest: dosed 5 minutes and 5 hours after occlusion. The procedure: CD(SD)IGS male rats (Japan Charles River Kabushiki […], Hino farm, room No. 22, specific product) (8 rats per one group) having body weight 270 to 350 g were anesthetized by 2% isoflurane (mixed bas comprising of 70% N2O (laughter gas) and 30% O2) to immobilize, and then the rats were put on warming plate to keep the rectal and brain temperature 37 to 38° C. After that, to observe the stability in the examination, canula which was made by polyethylene (PE-50, Becton Dickinson) was inserted and left in caudal artery of said animal, and this made blood drawing and blood pressure determining to monitor the biochemical parameter such as blood sugar level, hematocrit, CO2 concentration, oxygen partial pressure, pH, blood pressure and etc. In addition, cerebral blood flow in cortex was determined by laser doppler […] (Neuroscience.inc: OMEGA FLOW (FLO-C1)), putting the detection site directly on cranium on the point left 4 mm from bregma. Left neck of such animal was incised, and from internal and external carotid fork of common carotid artery to upstream of internal carotid, nylon surgical thread (length 16 mm, diameter 0.2 to 0.3 mm, with silicon coating on its tip 3 mm) was passed and left, middle cerebral artery was obstructed for 2 hours. After that, the thread was removed to release the middle cerebral artery, and blood was reperfused for 21 hours. To each animals, 3.0 mg/kg of 3-methyl-1-phenyl 2-pyrazolin-5-one (control, hereinafter referring to edaravone) and 4.23 mg/kg of 4-(5-phenyltetrazol-1-ylmethyl)-morpholine (compound 1) (test compound, hereinafter referring to TM-3001) were respectively administered twice by cannula which is left in caudal artery 5 minutes and 5 hours after middle cerebral artery occlusion. After said operation, the brain was removed from said animal, and after preparing 7 brain slices with 2 mm thickness, to TTC stain (0.8 g of 2,3,5-triphenyltetrazolium chloride (Sigma) dissolved in 40 ml of saline) were soaked at 37° C. for 15 minutes to stain, and fixed by 10% neutral formalin liquid to prepare specimen. Such specimens were created the image by CCD camera respectively, and analysed according to method of Swanson et al. (J Cereb Blood Flow Metab 10:290-293; […]). […] Furthermore, function recovering was estimated before and after the operation by rotor rod test that estimates how much they can walk on rotating rotor.

Setting [1] is: comparing to diluent single administration.

`c1ccc(-c2nnnn2CN2CCOCC2)cc1` [Compound 1, 4-(5-phenyltetrazol-1-ylmethyl)-morpholine]: the “Nervous condition estimation test, Ave (Bederson grade)” value reads like this: (after occlusion 10 min) 2.4; (after occlusion 2 hrs) 2.9; (after reperfusion 10 min) 2.6; (after reperfusion 3 hrs) 2.4; (after reperfusion 4 hrs) 2.5. Besides, the “rotor rod test, Ave (count from rotor rod machine)” value by setting is: (before occlusion) 300.0; (reperfusion) 64.8. In addition, the “improvement for nervous condition” value under setting [1] was “remarkably shown”. Besides, the “recovering the function, rotor rod test” value under setting [1] is “remarkably shown”. The cerebral infarction nest entry is, setting by setting: under setting [1], “reduction of the cerebral infarction nest”; (comparing to diluent single administration, listed as TM-3001) “significantly reduced”. Moreover, the “rotor rod test, ratio to before occlusion (%), Ave” value (reperfusion vs before occlusion) was 21.6%.

These data come from patent publication US20070161691A1, “Modified-protein formation inhibitor” (TOKAI UNIVERSITY, priority 2003, published 2007).
